Data reported in US20040010001A1, “Methods and compositions for modulating cell proliferation and cell death” (priority 1999, published 2004).
Where two headings read alike, the source gives them in different places.

Assays:
rat MAT-LyLu cells = experiment: Restoration of resistance by recombinant FGF in FGF-immunoprecipitated CM; assay type: cell-based
Experimental: The study was performed using rat MAT-LyLu cells. The reversal in CM-induced resistance was detected by measuring the changes in BrdU incorporation in treated samples relative to control samples. The source of CM was lung histocultures for both aFGF and bFGF experiments. The study used two controls: no CM (left solid curves, empty circles); with CM (right solid curves, empty squares). Upper left: CM minus […] (filled square); CM minus aFGF plus r-aFGF (filled circles, overlaps with the right CM-control curve). Upper right: CM minus bFGF (filled square, overlaps with the left control curve); CM minus bFGF plus r-bFGF (filled circle, overlaps with the right CM control curve). Lower left: Both the CM minus aFGF and bFGF (filled square) and the CM minus aFGF and bFGF plus aFGF (filled circle) curves overlap with the left control curve. Lower center: CM minus aFGF and bFGF (filled square, overlaps with left control curve); CM minus aFGF and bFGF plus r-bFGF (filled circle). Lower right: CM minus aFGF and bFGF (filled square, overlaps with left control curve); CM minus aFGF and bFGF plus r-aFGF and r-bFGF (filled circle, overlaps with the right CM-control curve).
aFGF or bFGF was immunoprecipitated with their respective monoclonal antibody (1 microgram/ml), in the presence of Protein G PLUS/protein A agarose (Oncogene). This procedure reduced the bFGF level in the original CM to below the detection limit of 5 pg/ml by the ELISA (Oncogene), and the aFGF level in the concentrated CM to below the detection limit by Western blotting.
The third study determined whether aFGF and/or bFGF are required for the resistance. Endogenous aFGF and/or bFGF were removed from the active CM by immunoprecipitation, and then reconstituted the CM using recombinant proteins. […] The fifth study confirmed that aFGF and bFGF were the main cause of chemoresistance, by using only r-aFGF and r-bFGF (i.e., without the immunoprecipitated CM) to induce resistance (FIG. 3). When given alone, r-aFGF had no effect whereas r-bFGF induced a concentration-dependent resistance. […]

Human prostate PC3 = experiment: FGF-induced resistance, inhibition of BrdU incorporation; assay type: cell-based; conditions: cell lines derived from solid tumors; 1 ng/ml r-aFGF plus 1 ng/ml r-bFGF vs 50 ng/ml r-bFGF alone
Experimental: Prior to drug treatment, cells were incubated for 4 days with tumor CM or with r-aFGF ad/or r-bFGF-containing medium, supplemented with 1% FBS (final protein concentration adjusted to 2 mg/ml). The medium was renewed every other day.
The antiproliferative drug effect in histocultures was measured as inhibition of ^3H-thymidine incorporation quantified by autoradiography (Yen, W. C. et al. (1996) Pharm. Res. 13:1305-1312) and, for monolayers, as inhibition of BrdU incorporation or as reduction of total proteins by the sulforhodamine B assay (Au, J. L.-S. et al. (1998) Cancer Res. 58:2141-2148). For the latter, the two assays yielded qualitatively similar results. Cell kill induced by 96-hour drug treatment was monitored by the release of LDH into the culture medium. LDH activity was monitored by the conversion of tetrazolium to formazan (detected at 490 nm).
The experimental conditions are described briefly below. Cells were pretreated with human recombinant r-aFGF and/or r-bFGF for 96 hours and then with drugs for 96 hours. For the studies on cells derived from the human prostate, lung, pharynx, colon and breast cancer cells, the drug effect was determined by the inhibition of BrdU incorporation. For the study on the human leukemic cells, the drug effect was measured by the MTT assay, which measures the number of metabolically active cells (Alley, M. C. et al (1988) Cancer Res 48:589-601).

[1] = system: human prostate cancer PC3 cells; experiment: Differential display of genes altered by bFGF treatment; assay type: cell-based
Experimental: Differential display was used to identify the down-stream genes that are involved in the bFGF-induced multidrug resistance. […] By this method, the genes that were altered by bFGF treatment in PC3 cells but not in FaDu cells were identified. The identified genes are likely to be associated with the bFGF-induced multidrug resistance.
For differential display, total RNA was isolated from the cells and reverse-transcripted in single strand cDNA. PCR was performed using a pair of T and P primers. […] Five of these bands were reproducibly altered in PC3 cells, but not in FaDu cells. These bands were cut from the gels, reamplified and cloned into pGEM-T vector. Nine different clones were identified and sequenced. The gene sequence was compared to the data in the NCBI GenBank. […] Primers were synthesized for drug resistant cancer cells. Among the nine clones, five were altered reproducibly by bFGF treatment while bFGF had no effect on the remaining four clones. The expression of two of the known genes, TSC22 and VEGF, were increased by 20 to 40%, whereas the expression of the three new genes (temporarily named FSC-1, FSC-2, and FSC-3) were induced by 65%, 300%, and 40%. TSC22 and VEGF are not known to be regulated by bFGF.

[2] = system: human leukemic cell line CCRF-CEM; experiment: FGF-induced resistance to fludarabine, MTT assay; assay type: cell-based; conditions: 96 h, 96 hour treatment, read-out: concentration required to produce 50%
[3] = system: Human prostate PC3 tumor cells; experiment: aFGF/bFGF-induced resistance and reversal by suramin, sulforhodamine B assay; assay type: cell-based
Experimental: The experimental conditions are described briefly below. […] Cell number was measured using the sulforhodamine B assay which measures the total protein concentration. […] The FGF-induced resistance was dependent on the FGF concentrations, with a higher resistance at higher FGF concentrations.

rat tumor cells = experiment: Doubling time of exponentially growing cells; assay type: cell-based; conditions: treatment with r-bFGF
PC3 tumor cells = experiment: Doubling time of exponentially growing cells; assay type: cell-based, human; conditions: treatment with r-bFGF
[4] = no suramin, relative to control

Q: For “r-aFGF: human recombinant aFGF, identical to the 14 kDa human aFGF except for the extra methionine at the amino terminus”, which induction of resistance (rat MAT-LyLu cells; added to CM depleted of both aFGF and bFGF) is on record?
A: The induction of resistance was “did not induce resistance”.

Q: And the “amplification of the r-bFGF effect by r-aFGF” value (Human prostate PC3)?
A: Its value is “more than 50 fold”.

Q: With “bFGF: basic Fibroblast Growth Factor used for treatment of PC3 cells” as the compound, how does the “induction of expression of FSC-1” value [1] read?
A: Its value is 65%.

Q: What about the “induction of expression of FSC-2” value [1] of the same compound?
A: Its value is 300%.

Q: And the “induction of expression of FSC-3” value [1]?
A: The value was 40%.

Q: Which IC50 ([2]; absence of FGF) does the source give for `Nc1nc(F)nc2c1ncn2[C@@H]1O[C@H](CO)[C@@H](O)[C@@H]1O` [Fludarabine] here?
A: The IC50 was 4 µM.

Q: What about the IC50 ([2]; r-aFGF (1 ng/ml) and r-bFGF (3 ng/ml)) of the same compound?
A: The IC50 was 6 µM.

Q: And the IC50 ([3]; Homo sapiens, read-out: IC50, Control (drug treatment only, without FGF treatment), No suramin, drug 96 hours)?
A: Its IC50 is 5.15 µM.

Q: What about the IC50 ([3]; Homo sapiens, read-out: IC50, aFGF 0.3 ng/ml + bFGF 1 ng/ml, No suramin, FGF pretreatment 96 hours, drug 96 hours) of the same compound?
A: Its IC50 is 13.5 µM.

Q: What about the IC50 ([3]; Homo sapiens, read-out: IC50, aFGF 1 ng/ml + bFGF 3 ng/ml, No suramin, FGF pretreatment 96 hours, drug 96 hours) of the same compound?
A: The IC50 was 21.9 µM.

Q: What about the “Resistance, Folds, aFGF 0.3 ng/ml + bFGF 1 ng/ml” value [3, 4] of the same compound?
A: Its value is 2.61 Folds.

Q: What about the “Resistance, Folds, aFGF 1 ng/ml + bFGF 3 ng/ml” value [3, 4] of the same compound?
A: Its value is 4.25 Folds.

Q: What about the IC50 ([3]; read-out: IC50, Control (without FGF treatment), Suramin, 15 μM, drug 96 hours with 15 μM suramin) of the same compound?
A: Its IC50 is 5.2 µM.

Q: What about the IC50 ([3]; read-out: IC50, aFGF 0.3 ng/ml + bFGF 1 ng/ml, With suramin, FGF pretreatment 96 hours, drug 96 hours with 15 micromolar suramin) of the same compound?
A: The IC50 was 4.69 µM.

Q: What about the IC50 ([3]; read-out: IC50, aFGF 1 ng/ml + bFGF 3 ng/ml, With suramin, FGF pretreatment 96 hours, drug 96 hours with 15 micromolar suramin) of the same compound?
A: Its IC50 is 5.85 µM.

Q: For “r-bFGF: human recombinant bFGF, identical to the 18 kDa human bFGF except for the extra methionine at the amino terminus”, which “doubling time, unchanged by treatment” value (rat tumor cells) is on record?
A: Its value is 17 h.

Q: What about the “concentration needed relative to the endogenous bFGF concentration in the native CM” value (rat MAT-LyLu cells; 50 ng/ml versus about 0.9 ng/ml) of the same compound?
A: The value was 55 fold.

Q: And the “concentration of exogenous r-bFGF needed to restore the resistance” value (rat MAT-LyLu cells; CM depleted of both aFGF and bFGF)?
A: Its value is 50 ng/mL.

Q: What about the “doubling time, unchanged by treatment” value (PC3 tumor cells) of the same compound?
A: Its value is 24 h.
